{"source": "patent US8211883B2", "about": "“Topical delivery of phthalocyanines” (priority 2004, dated 2012)", "key": {"[1]": {"tested_on": "human breast cancer MCF-7c3 cells", "test": "Uptake of PcIV salts into MCF-7c3 cells by flow cytometry", "settings": "50, 100 or 200 nM, 60 minutes, mean channel fluorescence normalized to PcIV", "protocol": "Cells were grown in 5 mL of RPMI-1640 medium supplemented with 10% fetal calf serum in 60-mm diameter Petri dishes in a 37° C. incubator in an atmosphere of 5% CO2, 95% air. Cultures were used when they were in exponential growth. For experiments, various concentrations (50, 100, or 200 nM) of each compound (PcIV, PcIV-HCl, PcIV-pyruvate), were added to the medium above the cells, and the dishes were returned to the incubator for 60 minutes to allow the photosensitizers to enter the cells. To evaluate uptake, the medium was removed, and the cells were detached from the plastic surface with trypsin and collected by centrifugation. The cell pellet was suspended in phenol-red-free Hank's balanced salt solution and analyzed by flow cytometry (λex=335-355 nm; emission collected through a 650-nm long-pass filter). For each cell sample, the data were expressed as the mean channel fluorescence and background was subtracted. Data for each concentration of the PcIV salts were then normalized to those for the same concentration of PcIV in the same experiment. […] Error bars represent the standard deviation of the mean."}, "[2]": {"tested_on": "human skin keratome biopsies", "test": "Penetration of topically applied PcIV and salts into human skin, confocal fluorescence microscopy", "type": "in vitro ADME", "settings": "compared to PcIV", "procedure": "Human skin absorption of PcIV was analyzed by fluorescence confocal microscopy. PcIV fluorescence, upon activation with a HeNe laser at 633 nm, was visualized using a 650 long pass filter. Briefly, 0.4 mm thick human keratomes were removed from the gluteal region of healthy volunteers and divided into 1.5 cm×1.5 cm squares of skin. Upon application of PcIV to the epidermis in a vehicle of ethanol and propylene glycol, visualization of penetration of PcIV was achieved by fluorescence. Pc 4 was then prepared as PcIV-pyruvate and PcIV-HCl and applied in the same vehicle as Pc 4 to the epidermis. Three concentrations, namely, 0.1 mg/mL, 0.05 mg/mL, and 0.01 mg/mL were tested per PcIV formulation. Skin was incubated at 37° C. for 1, 2, and 4 hours, along with vehicle controls. […] Maximum PcIV fluorescence was detectable using laser transmission of 3% for the 0.1 mg/mL and 30% for the 0.01 mg/mL. Both PcIV.pyruvate and PcIV.HCl however could be visualized with a laser transmission of 2-3% for the 0.1 mg/mL and 7-9% for the 0.01 mg/mL concentrations.\nThe ability of PcIV and the newly prepared PcIV salts (HCl and pyruvate) to penetrate into the epidermis of keratome derived biopsies was examined. The time course of penetrance as well as the effect of dose of the PcIV compounds were evaluated. PcIV and the PcIV.HCl and PcIV.pyruvate salts were resuspended in ethanol (100%, 1 part PcIV, 499 parts ethanol) and then diluted to final concentrations in a 30% Propylene Glycol 70% Ethanol mixture.\nKeratome biopsies of normal skin were obtained from normal volunteers after written consent according to UHHS IRB protocol # 05-95-03. To date, seven experiments have been performed. The range of age for volunteers was 20-40 yrs. Individuals represented Fitzpatrick skin types between I-III. Skin biopsies were held in PBS following the keratome procedure until processed for PcIV Application (less than 1 hr). The keratome skin samples (1.5 cm^2) were overlayed onto sterile gauze in 80 mm tissue culture petri dishes epidermal side down. PcIV compounds were then applied to the corners of the sterile gauze and allowed to “wick” through the gauze and contact the epidermis of the skin for the indicated times. Following the incubation, the tissue was removed from the gauze and washed three times in phosphate buffered saline and held, in PBS, until analysis by confocal microscopy. Confocal images were acquired using a 20×N.A. 0.5 water immersion objective on a Zeiss 510 confocal microscope. PcIV fluorescence was elicited using a 633 nm wavelength for excitation, and collected with a 633 nm dichroic mirror and 650 nm long-pass filter."}}}
{"smiles": "CC(=O)C(=O)O.CN(C)CCC[Si](C)(C)O[Si]1(O)n2c3c4ccccc4c2N=C2N=C(N=c4c5ccccc5c(n41)=NC1=NC(=N3)c3ccccc31)c1ccccc12", "note": "(centres unmarked) [PcIV-pyruvate, HOSiPcOSi(CH3)2(CH2)3N(CH3)2(CH3C(O)COOH)]", "values": [{"measurement": "efficiency in entering MCF-7c3 cells compared to PcIV", "setting": "[1]", "value": "at least as efficient, and possibly more efficient"}, {"measurement": "effect of salt formulation on penetration through the skin", "setting": "[2]", "value": "does not hinder the penetration"}]}
